Reference: the supplement of paper PMC13380429

Columns and labels:
Conditions in all cases: 72 h
Caco-2 [1] = test: cell viability relative to DMSO; higher = less toxic
Calu-3 [2] = test: as above
HepG2 [3] = test: as above
U2OS [4] = test: as above
Vero E6 [5] = test: as above
Caco-2 [6] = test: relative viability EC50 (midpoint between 100% and the lowest measured viability); higher = less toxic
Calu-3 [7] = test: as above
HepG2 [8] = test: as above
U2OS [9] = test: as above
Vero E6 [10] = test: as above
Caco-2 [11] = test: drug sensitivity score (DSS) for viability; higher = more toxic; extreme values may be limits of the assay
Calu-3 [12] = test: as above
HepG2 [13] = test: as above
U2OS [14] = test: as above
Vero E6 [15] = test: as above

Row | SMILES | cell viability (Caco-2 [1]; 1 nM) | cell viability (Caco-2 [1]; 10 nM) | cell viability (Caco-2 [1]; 100 nM) | cell viability (Caco-2 [1]; 1000 nM) | cell viability (Caco-2 [1]; 10000 nM) | cell viability (Calu-3 [2]; 1 nM) | cell viability (Calu-3 [2]; 10 nM) | cell viability (Calu-3 [2]; 100 nM) | cell viability (Calu-3 [2]; 1000 nM) | cell viability (Calu-3 [2]; 10000 nM) | cell viability (HepG2 [3]; 1 nM) | cell viability (HepG2 [3]; 10 nM) | cell viability (HepG2 [3]; 100 nM) | cell viability (HepG2 [3]; 1000 nM) | cell viability (HepG2 [3]; 10000 nM) | cell viability (U2OS [4]; 1 nM) | cell viability (U2OS [4]; 10 nM) | cell viability (U2OS [4]; 100 nM) | cell viability (U2OS [4]; 1000 nM) | cell viability (U2OS [4]; 10000 nM) | cell viability (Vero E6 [5]; 1 nM) | cell viability (Vero E6 [5]; 10 nM) | cell viability (Vero E6 [5]; 100 nM) | cell viability (Vero E6 [5]; 1000 nM) | cell viability (Vero E6 [5]; 10000 nM) | relative viability EC50 (Caco-2 [6]) | relative viability EC50 (Calu-3 [7]) | relative viability EC50 (HepG2 [8]) | relative viability EC50 (U2OS [9]) | relative viability EC50 (Vero E6 [10]) | drug sensitivity score (Caco-2 [11]) | drug sensitivity score (Calu-3 [12]) | drug sensitivity score (HepG2 [13]) | drug sensitivity score (U2OS [14]) | drug sensitivity score (Vero E6 [15])
1 | OC[C@H]1O[C@H](O)C[C@@H](O)[C@@H]1O [2-deoxyglucose] | 102% | 66.9% | 105% | 86.9% | 101% | 108% | 98.9% | 111% | 100% | 95.5% | 93.2% | 96% | 97.3% | 106% | 97.4% | 100% | 102% | 101% | 99.4% | 98% | 93.4% | 102% | 90.6% | 100% | 110% | > 10 µM | > 10 µM | > 10 µM | > 10 µM | > 10 µM | 0 | 0 | 0 | 0 | 0
2 | O=C1CN=C(c2cccc(Br)c2)c2oc3ccccc3c2N1 [5-BDBD] | 101% | 96.6% | 102% | 106% | 97% | 103% | 97.2% | 112% | 96.8% | 111% | 98.3% | 100% | 94.4% | 96.8% | 92.5% | 104% | 97.5% | 95.5% | 99.7% | 101% | 96.7% | 92.8% | 94.6% | 93.5% | 95.9% | > 10 µM | > 10 µM | > 10 µM | > 10 µM | > 10 µM | 0 | 0 | 0 | 0 | 0
3 | O=C(O)c1cc(O)c2ccc(Cl)cc2n1 [7-chlorokynurenic-acid] | 102% | 96.1% | 97.1% | 99.1% | 109% | 99.9% | 94.1% | 98.4% | 98% | 108% | 106% | 104% | 100% | 101% | 97% | 101% | 97.6% | 96.4% | 94.3% | 108% | 96.7% | 102% | 94.2% | 95.3% | 108% | > 10 µM | > 10 µM | > 10 µM | > 10 µM | > 10 µM | 0 | 0 | 0 | 0 | 0
4 | CCCN(C/C=C/I)[C@H]1CCc2ccc(O)cc2C1 [7-hydroxy-PIPAT] | 99.8% | 110% | 104% | 108% | 101% | 111% | 97.3% | 90.5% | 102% | 105% | 102% | 104% | 97.8% | 101% | 98.4% | 98% | 96.7% | 101% | 103% | 98.3% | 102% | 104% | 103% | 103% | 96% | > 10 µM | > 10 µM | > 10 µM | > 10 µM | > 10 µM | 0 | 0 | 0 | 0 | 0
5 | O=C(O)c1ccccc1NC(=O)N1CCC(c2ccccc2C(F)(F)F)CC1 [A-1120] | 100% | 93.2% | 98.4% | 96.8% | 84.2% | 102% | 96.5% | 100% | 94.1% | 106% | 88.2% | 96.1% | 107% | 103% | 108% | 104% | 104% | 102% | 100% | 98.7% | 101% | 100% | 93.1% | 95.4% | 93.5% | > 10 µM | > 10 µM | > 10 µM | > 10 µM | > 10 µM | 0.6 | 0 | 0 | 0 | 0
6 | Nc1ncnc2nc(-c3ccc(N4CCOCC4)nc3)cc(-c3cccc(Br)c3)c12 [ABT-702] | 107% | 99.9% | 102% | 104% | 93.4% | 103% | 83.3% | 112% | 95.3% | 100% | 104% | 96.4% | 96.5% | 108% | 89.6% | 106% | 103% | 104% | 99.8% | 101% | 96.1% | 100% | 95.2% | 94.4% | 88.1% | > 10 µM | > 10 µM | > 10 µM | > 10 µM | > 10 µM | 0 | 0 | 0 | 0 | 0
7 | CC(=O)Nc1cccc2c1c(Sc1ccc(Cl)cc1)c(C)n2CC(=O)O [AZD1981] | 102% | 105% | 91.6% | 102% | 103% | 102% | 96% | 89.7% | 94.3% | 96.2% | 100% | 103% | 105% | 99.8% | 97.9% | 94.6% | 102% | 94.3% | 101% | 97.6% | 98.6% | 98.1% | 97.4% | 97.4% | 94.4% | > 10 µM | > 10 µM | > 10 µM | > 10 µM | > 10 µM | 0 | 0 | 0 | 0 | 0
8 | C[C@@H]1Cc2c([nH]c3ccccc23)[C@@H](c2c(F)cc(/C=C/C(=O)O)cc2F)N1CC(C)(C)F [AZD9496] | 94.2% | 104% | 99.6% | 94.7% | 93.5% | 97.1% | 91.7% | 90.8% | 93.6% | 105% | 103% | 90% | 104% | 98.8% | 97.5% | 98.8% | 100% | 99% | 102% | 98.9% | 102% | 100% | 104% | 101% | 91.7% | > 10 µM | > 10 µM | > 10 µM | > 10 µM | > 10 µM | 0 | 0 | 0 | 0 | 0
9 | CCOC(=O)c1c[nH]cn1 [C-751] | 88.6% | 91.6% | 96.4% | 98.3% | 90.4% | 100% | 97.2% | 90.3% | 92.9% | 104% | 104% | 99.6% | 95.6% | 93.1% | 109% | 100% | 100% | 94.6% | 102% | 93% | 99.5% | 96.7% | 99.6% | 92.6% | 100% | > 10 µM | > 10 µM | > 10 µM | > 10 µM | > 10 µM | 0 | 0 | 0 | 0 | 0
10 | CCN1C(=O)CNc2ncc(-c3ccc(-c4nc[nH]n4)nc3C)nc21 [CC-115] | 94.7% | 96.4% | 89.2% | 39.8% | 20.5% | 106% | 92% | 91.9% | 37.3% | 21.6% | 108% | 102% | 105% | 57.2% | 25.1% | 100% | 102% | 99.6% | 59.4% | 6.6% | 108% | 103% | 103% | 64.4% | 24.8% | 0.411 µM | 0.4 µM | 0.894 µM | 1.11 µM | 1.04 µM | 12.7 | 12.8 | 9.3 | 10.5 | 8.7
11 | CN[C@@H](C)C(=O)N[C@H](C(=O)N1CCC[C@H]1C(=O)Nc1sc(-c2ncco2)nc1-c1ccccc1)C1CCCCC1 [CUDC-427] | 98.1% | 101% | 98.5% | 109% | 99.7% | 96.6% | 107% | 86.5% | 102% | 85.6% | 111% | 91.5% | 96.3% | 90% | 95.2% | 98% | 99.9% | 99.2% | 108% | 92.7% | 94.2% | 96.6% | 105% | 105% | 111% | > 10 µM | > 10 µM | > 10 µM | > 10 µM | > 10 µM | 0 | 0.1 | 0 | 0 | 0
12 | COC(=O)c1ccccc1NC(=O)c1ccc(F)cc1 [EXO-1] | 99.5% | 93% | 100% | 103% | 100% | 97.9% | 98.1% | 99.6% | 95.6% | 96.5% | 95.6% | 99.9% | 91.8% | 94.7% | 111% | 98.7% | 91.8% | 98.3% | 95.7% | 98.8% | 95.2% | 94.6% | 91% | 93.6% | 99.5% | > 10 µM | > 10 µM | > 10 µM | > 10 µM | > 10 µM | 0 | 0 | 0 | 0 | 0
13 | O=C(N[C@@H]1Cc2ccccc2N(C[C@@H](O)CO)C1=O)c1cc2cc(Cl)sc2[nH]1 [GPi-688] | 101% | 98% | 96.9% | 94.2% | 92.9% | 102% | 99.3% | 99.9% | 94.1% | 87.8% | 96% | 104% | 98.1% | 104% | 100% | 98.4% | 102% | 95.2% | 96.8% | 94.7% | 99.9% | 102% | 104% | 100% | 90.5% | > 10 µM | > 10 µM | > 10 µM | > 10 µM | > 10 µM | 0 | 0.3 | 0 | 0 | 0
14 | CCCn1c(=O)c2[nH]c(-c3cnn(Cc4cccc(C(F)(F)F)c4)c3)nc2n(CC)c1=O [GS-6201] | 98.5% | 104% | 105% | 108% | 100% | 103% | 109% | 96.3% | 96.1% | 97.4% | 106% | 91.6% | 104% | 94.2% | 96.8% | 96.9% | 101% | 96.3% | 105% | 100% | 98.5% | 96.1% | 96.5% | 97.8% | 104% | > 10 µM | > 10 µM | > 10 µM | > 10 µM | > 10 µM | 0 | 0 | 0 | 0 | 0
15 | O=C(O)CNC(=O)c1c(O)c2ccccc2n(Cc2ccccc2)c1=O [IOX2] | 95.4% | 97.1% | 92% | 102% | 93.2% | 87% | 88% | 85.8% | 96% | 87.4% | 108% | 106% | 108% | 93.9% | 106% | 96.2% | 102% | 94.8% | 98.5% | 95.6% | 104% | 99.7% | 102% | 106% | 98.4% | > 10 µM | > 10 µM | > 10 µM | > 10 µM | > 10 µM | 0 | 0 | 0 | 0 | 0
